Source: patent US20110027185A1, “Methods of Screening for Anti-Angiogenic Compounds” (priority 2007, published 2011)

How the values were obtained:
FBP21 in RPE cells = test: VEGFxxxb levels in RPE cells transfected with FBP21 construct; format: cell-based, human; details: pWV327 vs pOriGene-FBP21 control, 7 uM, 24 hours
Description: (§1) pOriGene-FBP21 (FIG. 9A, SEQ ID No. 5) was purchased from Origene. This construct contains the cDNA for the human FBP21 gene. Due to the presence in this contruct of non-essential DNA which would have disrupted the expression of FBP21, a three part ligation was carried out to remove this DNA. This generated pWV327 (FIG. 9B, SEQ ID No. 6).
(§2) Both RPE and HEK cells were transfected with either pOriGene-FBP21 (as a control, due to the lack of FBP21 expression) or pWV327 (for overexpression of FBP21), using standard techniques. These cell lines were then treated with compound 5 (7 uM) or untreated, and VEGFxxxb levels analysed after 24 hours. FIGS. 10A, B and C show the results of this analysis.

FBP21 in HEK cells = test: VEGFxxxb levels in HEK cells transfected with FBP21 construct; format: cell-based, human; details: pWV327 vs pOriGene-FBP21 control, 7 uM, 24 hours
Description: as §1, §2

[1] = tested on: VEGFxxx and VEGFxxxb expression in RPE cells; test: VEGF isoform ELISA of media of treated RPE cells; format: cell-based; details: 0.5 μM or 5 μM, 72 hours
Description: Media was sampled after 72 hours treatment, and assessed for total VEGF and VEGFxxxb expression (see Bates et al., 2002, Woolard et al., 2004 and Varey et al., 2008 for methods).

[2] = tested on: retinal neovascularisation; test: Mouse Retinopathy of Prematurity (ROP) oxygen induced retinopathy model; format: in vivo; details: for neovascularisation compared with contralateral eye: day 17, p<0.01 paired t-test
Description: Evidence that compound 5, a borrelidin analogue which affects splicing of VEGF through FBP21, affects angiogenesis was gained from an in vivo mouse model, […] (ROP), which mimics some of the processes in Age-related Macular Degeneration and other eye diseases where neovascularisation is associated with disease progression.
Compound 5 was dosed at two concentrations, 0.5 μM and 5 μM, in a mouse Retinopathy of Prematurity (ROP) model (see Konopatskaya et al., 2006 for methods). Oxygen induced retinopathy was induced by placing the mice at 75% oxygen from day 7 to day 12 post birth and then removing them to normal room air. Mice were injected with either vehicle (0.02% DMSO in HBSS) or 0.5 μM or 5 μM compound 5 into one eye, and the other left uninjected (contralateral). At day 17 mice were killed, retinas removed and stained for endothelial cells with isolectin (FIG. 11).

[3] = tested on: VEGFxxxb and total VEGF in RPE cells; test: Dose dependent effect on VEGF in RPE cell lysate (ELISA, Western blot); format: cell-based; details: 24 hours
Description: FIG. 7: Comparison of the effect of compound 5 on the VEGF levels by ELISA. RPE cells were treated with increasing concentrations of compound 5 for 24 hours and the VEGFxxxb and total VEGF concentrations measured by ELISA. **p<0.05, Dunnett's, **p<0.01, 95% confidence interval, alpha=0.05, N=3.
FIG. 8: (A) Western Blot analysis of the cell lysate for expression of VEGF165b. Primary antibody: 56/1 mouse anti-h antibody (200 μg/ml, 1:250 dilution) and secondary antibody: Goat anti-mouse antibody (1:7000 dilution).
RPE cell lysate was extracted after 24 hours incubation with increasing concentrations of compound 5. VEGFxxxb and VEGFxxx levels were then analysed by ELISA (see Bates et al., 2002, Woolard et al., 2004 and Varey et al., 2008 for methods). These levels were compared to total cell protein levels.

## CC1CC(C)CC(C)C(O)C(C#N)=CC=CCC(C2CCC2C(=O)O)OC(=O)CC(O)C(C)C1 (stereo not drawn) [compound 5, 17-des-(cyclopentane-2′-carboxylic acid)-17-(cyclobutane-2′-carboxylic acid) borrelidin]
FBP21 in RPE cells
  effect on VEGFxxxb levels after FBP21 transfection: FBP21 transfection reduced the effect
FBP21 in HEK cells
  effect on VEGFxxxb levels after FBP21 transfection: FBP21 transfection reduced the effect
[1]
  VEGFxxx expression (ELISA): significant downregulation
  VEGFxxxb expression (ELISA): significant upregulation
[2]; 0.5 μM injected into one eye
  percentage neovascularisation compared to vehicle and the 5 μM dose: significantly inhibited
  neovascularisation compared with contralateral eye: significant reduction
[2]; 5 μM injected into one eye
  neovascularisation compared with contralateral eye: significant reduction
[3]; 5 μM
  increase in VEGFxxxb levels versus control: statistically higher than those of the control
[3]; increasing concentrations
  total VEGF levels (ELISA): dose dependent decrease
